Test results: US9616140B2, “Fluorescent phospholipid ether compounds, compositions, and methods of use” (Cellectar, Inc., priority 2009, dated 2017)
Values belong to the molecule of their own block, whether it stands above or below them.

Columns and labels:
[1] = tested on: normal skin (704sk) cells; experiment: Distribution of CLR1501 in normal skin cells; format: cell-based; conditions: 7.5 μM, 24 hours
Experimental: (§1) To study the distribution of CLR1501 in cancer skin cells versus normal skin cells, CLR1501 was introduced into skin melanoma (A375) and normal skin (704sk) cells, purchased from ATCC. Both cells were maintained at 37° C. in DMEM media supplemented with 10% FBS and 5% CO2. Before imaging, the cells were removed from flasks with 0.25% trypsin and were allowed to grow overnight on the slides (Ibidi, microslides VI flat, Catalog No: 80626). The next day, the media was gently replaced with Phosphate Buffered Saline (PBS) and the cells were incubated with 7.5 μM of CLR1501 on DMEM media for 24 hours. CRL1501 was formulated with 0.4% of Polysorbate 20, 2% of ethanol and saline. After washing thoroughly with PBS, the cells were imaged using Bio-Rad Radiance 2100 MP Rainbow with 1 second exposure time.

[2] = tested on: Ovcar-3 (ovarian adenocarcinoma) cells; experiment: Intensity of signal emitted by CLR1501, confocal microscopy; format: cell-based; conditions: 5 μM CLR1501, 24 hours
Experimental: (§2) Similar experiments were performed on several other cancerous cell lines: colorectal adenocarcinoma, uterine carcinoma, pancreatic carcinoma, ovarian adenocarcinoma, glioblastoma, clear cell carcinoma, and prostate adenocarcinoma. For comparison reasons, normal fibroblast cells were incubated with CLR1501.
(§3) Briefly, cells were plated overnight in micro slides VI (Ibidi, Verona, Wis.). The next day the cells were incubated with 5 μM of CLR1501 for 24 hours at 37° C. The cells were washed with PBS before the images were taken. The images were obtained using Nikon A1R confocal microscope. The length of exposure and intensity of the laser were similar among samples. CLR1501 was obtained using Alexa Fluor 488 filters (488 nm excitation-520 nm emission wavelength).
(§4) Table 1 illustrates intensity of signal emitted by CLR1501 in cancerous cell lines versus normal cells.

[3] = tested on: NFA (normal fibroblast cells); experiment: as above; format: cell-based; conditions: 5 μM CLR1501, 24 hours
Experimental: as §2, §3, §4

[4] = tested on: Caki-2 (clear cell carcinoma) cells; experiment: as above; format: cell-based; conditions: 5 μM CLR1501, 24 hours
Experimental: as §2, §3, §4

[5] = tested on: PC3 (prostate adenocarcinoma) cells; experiment: as above; format: cell-based; conditions: 5 μM CLR1501, 24 hours
Experimental: as §2, §3, §4

[6] = tested on: Panc-1 (pancreatic carcinoma) cells; experiment: as above; format: cell-based; conditions: 5 μM CLR1501, 24 hours
Experimental: as §2, §3, §4

NFA cells [7] = experiment: Co-culture NFA/PC3, co-staining with nucleus stain and mitochondria marker; format: cell-based; conditions: NFA (normal), 5 μM, 24 hours
Experimental: (§5) Briefly, NFA and PC3 cell lines were co-cultured overnight on micro slide VI (Ibidi, Verona, Wis.). The next day, the cells were incubated with 5 μM of CLR1501 for 24 hours at 37° C. in complete media. The next day after washing with PBS, the cells were co-stained with nucleus stain (Hoechst 33342) and mitochondria marker (Mitotracker), (Invitrogen, Carlsbad, Calif.). The cells were observed using Nikon A1R confocal microscope. CLR1501 was excited and detected using Alexa-Fluor 488 filter, while nucleus stain and mitochondria stain were excited and detected using DAPI filter and Texas-Red filter, respectively.

PC3 cells = experiment: as above; format: cell-based; conditions: 5 μM, 24 hours
Experimental: as §5

[8] = tested on: Panc-1 cells (human pancreatic carcinoma); experiment: Retention of CLR1501 in pre-incubated Panc-1 cells inoculated into athymic nude mouse; format: in vivo; conditions: Panc-1 cells incubated 4 hours, then inoculated
Experimental: FIG. 10 depicts tumor co-localization of CLR1501 in athymic nude mouse. […] The mouse was inoculated with 1×10^6 Panc-1 cells (human pancreatic carcinoma) which were incubated with CLR1501 or Kodak X-Sight 761 or both CLR1501 and Kodak X-Sight 761 for 4 hours. The cells were harvested and inoculated in different spots. The signals from each dye were obtained using Kodak in vivo imaging system (Carestream Health, Woodbridge, Conn.). CLR1501 was excited at 480 and emitted at 520 nm while the Kodak X-Sight was excited at 750 and emitted at 830 nm.

[9] = tested on: glioblastoma cells (U87MG); experiment: Incubation of glioblastoma cells with CLR1501 and co-staining; format: cell-based; conditions: 48 hours
Experimental: The following co-stained dyes were used: Hoechst 33342 (1 μg/mL) (nucleus; blue color), Mitotracker (25 nM) (mitochondria, red color) and Blue-White DPX (100 nM) (Endoplasmic Reticulum (ER), blue color) were diluted in PBS and added to the cells for 15 minutes. The cells were washed with PBS and imaged with Bio-Rad Radiance 2100 MP Rainbow.

[10] = tested on: Panc-1 (pancreatic carcinoma) tumors; experiment: In vivo fluorescence imaging of CLR1501 distribution in Panc-1 tumor-bearing athymic nude mice; set-up: species or system mouse
Experimental: Athymic nude mice (Hsd: Athymic Nude-Fox1^nu), inoculated with Panc-1 (Pancreatic carcinoma), were injected with 150 μL of 6 mg/mL CLR1501 formulated in 0.4% Polysorbate 20, 2% ethanol and saline 24 hour and 96 hours prior to imaging. The fluorescence images were obtained using a Kodak In-Vivo Multispectral System FX. The system provides multispectral tuning of excitation light which is able to separate signals from the dye and from the body autofluorescence. Mice were anesthetized by inhalation of isofluorane. The dyes were excited at 570 nm. […] The mouse was inoculated with 1×10^6 Panc-1 cells (human pancreatic carcinoma). […] CLR1501 was excited at 480 and emitted at 520 nm. The intensity was monitored at 24 and 96 hours using Kodak in vivo imaging system (Carestream Health, Woodbridge, Conn.).

[11] = tested on: skin melanoma (A375) cells; experiment: Distribution of CLR1501 in cancer skin cells; format: cell-based
Experimental: as §1, with “The next day, the media was gently replaced with Phosphate Buffered Saline (PBS) and the cells were incubated with 7.5 μM of CLR1501 on DMEM media for 24 hours.” left out

NFA cells [12] = experiment: Co-culture NFA/Caki-2, co-staining with nucleus stain and lysosome marker; format: cell-based; conditions: co-culture with Caki-2, 5 μM, 24 hours
Experimental: as §5, with “and Caki-2” for “and PC3”, “and lysosome” for “and mitochondria”, “marker (Lyso-tracker),” for “marker (Mitotracker),”, “488 filter” for “488 filter,”, “DAPI” for “DAPI filter”

Caki-2 cells = experiment: as above; format: cell-based; conditions: 5 μM, 24 hours
Experimental: as §5, with “and Caki-2” for “and PC3”, “and lysosome” for “and mitochondria”, “marker (Lyso-tracker),” for “marker (Mitotracker),”, “488 filter” for “488 filter,”, “DAPI” for “DAPI filter”

[13] = tested on: tumor cell lines (HCT-116, MES SA/DX-5, Mia Paca-2, Panc-1, Ovcar-3, U-87MG, Caki-2, PC3); experiment: Uptake of CLR1501 in cancerous cell lines versus normal cells; format: cell-based
Experimental: as §2, §3

[14] = tested on: xenograft and spontaneous primary and metastatic human and rodent tumor models; conditions: cited from earlier work
[15] = injected 96 hours prior to imaging

Distribution of fluorescence signal in vivo ([10]; injected 150 μL of 6 mg/mL, 24 and 96 hours prior to imaging): found mostly in the tumors
Accumulation in the tumor [10, 15]: more pronounced
Retention of the dye in other tissues [10, 15]: tremendously reduced
SMILES: C[N+](C)(C)CCOP(=O)([O-])OCCCCCCCCCCCCCCCCCCc1ccc(C2=C3C=CC=[N+]3[B-](F)(F)n3cccc32)cc1 [CLR1501, 18-[p-(4,4-difluoro-4-bora-3a,4a-diaza-s-indacene-8-yl)-phenyl]-octadecyl phosphocholine]
Cellular distribution [1]: transported to the lysosomes where it was degraded
Relative intensity to normal cells [2]: 6.2
Average grey intensity ([2]; 37° C.): 92.86
Relative intensity to normal cells [3]: 1
Average grey intensity ([3]; 37° C.): 14.99
Relative intensity to normal cells [4]: 10.11
Average grey intensity ([4]; 37° C.): 151.56
Relative intensity to normal cells [5]: 12.01
Average grey intensity ([5]; 37° C.): 180.04
Relative intensity to normal cells [6]: 9.58
Average grey intensity ([6]; 37° C.): 143.65
Co-localization with nucleus (NFA cells [7]): not co-localized with nucleus
Co-localization with nucleus (PC3 cells; PC3 (tumor)): not co-localized with nucleus
Co-localization with mitochondria (PC3 cells; PC3): co-localized with mitochondria
Retention in cancer cells after inoculation [8]: continues to be retained in these cells after in vivo subcutaneous injection
Site of accumulation in cells [9]: mostly accumulated in cytoplasm of the cells
Co-localization with organelles ([9]; Mitotracker, Blue-White DPX): co-localized with mitochondria and ER
Tumor co-localization over time ([10]; 1 mg in 0.15 mL, monitored at 24 and 96 hours, de-skinned): accumulated in tumor site, while it cleared out from the rest of normal organs
Cellular distribution ([11]; 7.5 μM, 24 hours): internalization of CLR1501 into numerous fluorescent vesicles that are scattered throughout the cytoplasm
Early time uptake profile ([11]; half an hour after incubation): signals are thin and limited at the plasma membrane
Early time uptake profile ([11]; one hour after incubation): signals are not concentrated solely in the plasma membrane: intracellular structures are also observed
Co-localization with nucleus (NFA cells [12]; NFA (normal)): not co-localized with nucleus
Co-localization with lysosome (NFA cells [12]; NFA): minimally with NFA
Co-localization with nucleus (Caki-2 cells; Caki-2 (tumor)): not co-localized with nucleus
Co-localization with lysosome (Caki-2 cells; Caki-2): co-localized with lysosome
Uptake in cancerous cell lines ([13]; FIGS. 2c-2i and 2k-2l, 5 μM, 24 hours): significant uptake
Penetration into the nucleus ([13]; the in vitro experiments overall): does not penetrate inside of the nucleus
Uptake by tumor cells relative to normal fibroblast cells ([13]; tumor cells of Table 1 vs NFA): 6-12 times

SMILES: C[N+](C)(C)CCOP(=O)([O-])OCCCCCCCCCCCCCCCCCCc1ccc(I)cc1 [NM404, 18-p-(iodophenyl)-octadecyl phosphocholine]
Duration of selective retention in tumors ([14]; mouse models): > 80 days
Tumor models showing selective retention ([14]; xenograft and spontaneous primary and metastatic tumor models): 37 out of 37
